Reference: patent US10857209B2, “Lysosomal acid lipase and PPAR gamma ligands as immune therapies for cancer treatment” (Indiana University Research and Technology Corporation, priority 2016, dated 2020)

Tests used:
Format in all cases: cell-based, mouse
[1] = test system: HD1B cells; assay: Mitochondrial membrane potential assay (JC1) in HD1A and HD1B cells; conditions: for mitochondrial membrane potential (JC-1 staining): NAC 100 μM or Tempol 10 μM overnight
Procedure: (§1) HD1A and HD1B cells were grown in 24-well plates to the desired confluence. Cells were treated with solvent (DMSO, 0.1%), rapamycin (40 nM), or PP242 (40 nM) for 1 hour, or NAC (100 μM, Sigma-Aldrich), or Tempol (10 μM, Sigma-Aldrich) overnight. Treated cells were replaced with the pre-warmed (37° C.) medium containing JC1 (5 μM, Molecular Probes) for 1 hour. Labeled cells were replaced with fresh medium and examined under the Nikon inverted fluorescence microscope.

[2] = test system: mTOR signaling pathway; assay: Western blot of mTOR downstream effector S6 phosphorylation in HD1A and HD1B cells
Procedure: HD1A and HD1B cells were lysed in the Cell Lytic M mammalian cell lysis/extraction buffer (Sigma-Aldrich) according to the manufacturer's instruction. Protein samples were fractionated on a Novex 4-20% Tris-Glycine Mini Gel (Invitrogen). After transferring to the polyvinylidene difluoride membrane (Bio-Rad), the membrane was blotted with 5% nonfat dry milk in 1×PBS, and incubated with rabbit anti-p-S6 (Ser235/236), anti-S6, anti-p-Drp1 (Ser616), anti-Drp1, and anti-actin primary antibodies (from Cell Signaling), or rat anti-LAMP1, rabbit anti-Opa1 antibodies (from Santa Cruz). Following incubation with the secondary antibody that conjugated with horse radish peroxidase, proteins were visualized with chemiluminescent substrate (Thermo Scientific) under ChemiDox MP Image System.
as §1

[3] = test system: HD1B cells; assay: ROS measurement by flow cytometry in HD1A and HD1B cells; conditions: 40 nM, 60 minutes
Procedure: HD1A and HD1B cells were treated with solvent, rapamycin (40 nM), or PP242 (40 nM) for 60 minutes. Cells were washed and stained with 2 μM of 2′,7′-dichlorodihydrofluorescein diacetate stained (DCFDA, Invitrogen) which is nonfluorescent until the acetate group is removed by intracellular esterases and oxidation occurs within the cell (Invitrogen). The incubation was at 37° C. for 20 minutes, followed by washing with cold PBS. The ROS level was measured by flow cytometry.

| SMILES | mitochondrial membrane potential (JC-1 staining) [1] | mTOR downstream effector S6 phosphorylation [2] | ROS production [3] | mitochondrial membrane potential (JC1 staining) ([1]; mTOR inhibitor 40 nM, 1 hour) |
| --- | --- | --- | --- | --- |
| CC(=O)N[C@@H](CS)C(=O)O [NAC] | partially improved the condition of the mitochondrial membrane potential | – | – | – |
| CC(C)n1nc(-c2cc3cc(O)ccc3[nH]2)c2c(N)ncnc21 [PP242] | – | blocked mTOR downstream effector S6 phosphorylation | decreased ROS production | reversed the damaged mitochondrial membrane potential |
| CC1(C)CC(O)CC(C)(C)N1[O] [TEMPOL] | partially improved the condition of the mitochondrial membrane potential | – | – | – |
